# Laboratory results taken from patent publication US5437982A, “Methods of identifying specific inactivation gate inhibitors of the sodium channel” (University of Washington, priority 1993, dated 1995).
# “Also recorded” adds a separate entry of the source. Where a SMILES comes first, the peptide text is derived from it.
# Columns and labels:
# Assay type in all cases: cell-based
# [1] = target: wild-type Type IIA sodium channels (Rattus norvegicus, UniProt P04775); assay: Voltage- and frequency-dependent block of sodium channels, sodium currents recorded in CNaIIA-1 cells; settings: for block of rapidly cycling type IIA sodium channels over the entire voltage range: 10 Hz voltage pulses, -50 to +100 mV
# Sequence of wild-type Type IIA sodium channels (P04775 whole entry): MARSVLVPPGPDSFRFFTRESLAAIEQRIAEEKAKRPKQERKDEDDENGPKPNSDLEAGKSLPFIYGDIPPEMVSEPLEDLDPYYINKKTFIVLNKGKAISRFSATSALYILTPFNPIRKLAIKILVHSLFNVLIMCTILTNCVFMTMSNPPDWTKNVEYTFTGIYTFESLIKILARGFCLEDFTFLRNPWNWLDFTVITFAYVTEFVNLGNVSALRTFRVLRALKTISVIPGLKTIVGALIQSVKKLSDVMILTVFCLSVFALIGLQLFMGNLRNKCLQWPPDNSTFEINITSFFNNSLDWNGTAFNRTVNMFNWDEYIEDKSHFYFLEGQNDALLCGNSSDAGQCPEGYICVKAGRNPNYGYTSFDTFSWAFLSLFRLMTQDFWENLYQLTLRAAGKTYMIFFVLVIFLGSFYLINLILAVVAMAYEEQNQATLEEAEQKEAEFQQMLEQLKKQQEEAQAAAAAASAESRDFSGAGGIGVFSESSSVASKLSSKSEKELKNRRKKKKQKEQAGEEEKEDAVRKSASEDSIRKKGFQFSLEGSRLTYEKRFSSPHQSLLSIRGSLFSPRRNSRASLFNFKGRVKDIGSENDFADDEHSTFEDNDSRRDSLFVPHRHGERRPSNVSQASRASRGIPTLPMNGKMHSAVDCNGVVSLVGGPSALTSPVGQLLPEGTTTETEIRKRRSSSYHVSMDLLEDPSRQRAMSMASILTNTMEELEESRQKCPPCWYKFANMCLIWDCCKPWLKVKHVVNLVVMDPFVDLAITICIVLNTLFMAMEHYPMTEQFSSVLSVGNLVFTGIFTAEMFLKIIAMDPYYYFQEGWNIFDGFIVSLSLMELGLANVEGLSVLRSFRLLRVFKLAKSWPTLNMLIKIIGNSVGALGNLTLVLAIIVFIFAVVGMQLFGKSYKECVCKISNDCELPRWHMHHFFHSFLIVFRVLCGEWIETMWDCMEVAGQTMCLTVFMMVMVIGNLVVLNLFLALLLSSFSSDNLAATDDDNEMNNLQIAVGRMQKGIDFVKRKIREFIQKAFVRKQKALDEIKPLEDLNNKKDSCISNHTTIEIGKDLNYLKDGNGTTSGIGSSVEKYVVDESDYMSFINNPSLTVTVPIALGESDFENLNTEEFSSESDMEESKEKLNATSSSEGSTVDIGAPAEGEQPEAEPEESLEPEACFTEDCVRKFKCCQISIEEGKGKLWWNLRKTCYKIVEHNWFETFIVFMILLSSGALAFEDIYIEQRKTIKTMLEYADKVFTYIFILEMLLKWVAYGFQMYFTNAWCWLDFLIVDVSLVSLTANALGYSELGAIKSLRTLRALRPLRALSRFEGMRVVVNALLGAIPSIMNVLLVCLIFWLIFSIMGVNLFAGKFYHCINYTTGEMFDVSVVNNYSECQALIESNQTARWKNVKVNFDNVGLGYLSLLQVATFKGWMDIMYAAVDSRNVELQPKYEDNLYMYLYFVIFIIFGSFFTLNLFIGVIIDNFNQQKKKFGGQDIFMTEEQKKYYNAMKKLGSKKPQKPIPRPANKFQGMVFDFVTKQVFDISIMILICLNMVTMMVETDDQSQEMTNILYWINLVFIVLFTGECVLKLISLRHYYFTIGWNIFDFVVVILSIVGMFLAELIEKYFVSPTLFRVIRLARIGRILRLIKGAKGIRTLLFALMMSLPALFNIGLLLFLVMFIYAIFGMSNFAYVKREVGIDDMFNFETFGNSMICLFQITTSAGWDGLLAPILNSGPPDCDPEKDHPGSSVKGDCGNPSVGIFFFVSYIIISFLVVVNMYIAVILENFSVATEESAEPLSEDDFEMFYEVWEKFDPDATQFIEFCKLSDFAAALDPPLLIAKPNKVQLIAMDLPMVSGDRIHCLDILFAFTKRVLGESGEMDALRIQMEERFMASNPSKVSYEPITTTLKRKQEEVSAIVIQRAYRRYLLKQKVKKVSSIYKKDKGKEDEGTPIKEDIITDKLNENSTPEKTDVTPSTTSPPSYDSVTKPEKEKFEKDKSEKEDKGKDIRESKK
# Protocol: (§1) Experiments were performed on wild-type Type IIA sodium channels stably transfected into Chinese hamster ovary (CHO) cells (CNalIA-1; as described in citation 23, which is incorporated herein by reference) and mutant (F1489Q) sodium channels transiently transfected into human kidney carcinoma cells (as described in citations 24 and 25, which are incorporated herein by reference).
# The effects of the KIFMK gate peptide on sodium channels was tested by backfilling an electrode with a recording solution containing 1 mM peptide after loading the tip of the electrode with a buffer of peptide-free solution (i.e., to enhance seal formation when the electrode was inserted into a cell). After forming a high-resistance seal and breaking through the cell membrane, the peptide rapidly diffused into the cell and caused the appearance of tail currents (see below) within 10 minutes. When stabilized, sodium currents were recorded in the cells before and after a series of 10 Hz voltage pulses that varied over the range -50 to +100 mV. Parallel control experiments were conducted in which electrodes were not backfilled with peptides. The magnitude of the sodium currents in the experimental and control preparations were compared.
# As a control, a KIQMK peptide was prepared to mimic the sequence present in mutant F 1489Q sodium channels.
# [2] = test system: mutant F1489Q sodium channels; assay: Restoration of inactivation in mutant sodium channels transiently expressed in TSQ-201 cells; settings: for inactivation of mutant (F1489Q) sodium channels: peptide perfused at 1 mM into TSQ-201 cells, FIG. 4
# Protocol: as §1
# Mutant F1489Q sodium channels were transiently expressed in TSQ-201 cells (24). The mutant channels in the cells activated normally but inactivated very slowly. […] The time course of inactivation for the mutant channels was dramatically slowed over the entire voltage range. Having established the properties of the test cells and mutant channels, the peptides KIFMK and KIQMK were next tested. KIFMK or KIQMK were perfused (at a concentration of 1 mM) into the TSQ-201 cells expressing the mutant (F1489Q) sodium channels.
# [3] = target: Wild-type IIA sodium channels (Rattus norvegicus, UniProt P04775); assay: Competition with the normal inactivation process: tail currents by whole-cell voltage clamp; settings: cell perfused with peptide; for macroscopic sodium current elicited by depolarizing test pulse to 0 mV: versus controls; for tail currents elicited by repolarization pulse: from 0 to -80 mV, FIG. 5
# Sequence of Wild-type IIA sodium channels (P04775 whole entry, the tested form may be a part): as the sequence (P04775 whole entry) above
# Excerpt: Considering binding of KIFMK inactivation gate peptide to putative inactivation gate receptor site(s) in the intracellular mouth of the sodium channel, peptide binding might prevent channel closure by the natural inactivation gate due to steric hindrance. In this model, closure of the inactivation gate would be prevented by the drug and after depolarization-induced opening, repolarization should cause the peptide to dissociate from the channel, leaving the channel open for a "brief period" of time before closure and inactivation can block the channel. The existence of the "brief period" of channel opening was captured and recorded as a rising component of tail current in the following experiments.
# Wild-type IIA sodium channels were recorded using a whole-cell voltage clamp method. Under the recording conditions used, the sodium channels have tail currents upon rapid repolarization that declined exponentially without a rising phase because the channel rapidly closes upon repolarization (FIG. 5A). The magnitude of the tail currents decreases as the duration of the test pulse is increased. Repetitive pulsing created a family of tail current recordings that decreased exponentially (from a starting level near that of the sodium current), without any rising component in the recorded curves (FIG. 5A). […] The amplitude of the rising component of the latter tail currents decreased with increasing pulse duration as the macroscopic sodium current decreased.
# [4] = target: scorpion-toxin modified wild-type sodium channels (Rattus norvegicus, UniProt P04775); assay: Inactivation in scorpion-toxin modified wild-type sodium channels in CNaIIA-1 cells; settings: 100 nM LqTx in bath; test voltage to 0 mV; FIG. 6
# Sequence of scorpion-toxin modified wild-type sodium channels (P04775 whole entry): as above
# Excerpt: Externally applied alpha-scorpion toxins slow sodium channel inactivation without affecting activation (reviewed in 26). Sodium currents in stably transfected CNaIIA-1 cells respond to a depolarizing test voltage to 0 mV with rapid activation and inactivation of the sodium channel. […] KIQMK, on the other hand, had no effect (FIG. 6).
# Na+ channels = assay: Structural specificity: ability of peptides to block sodium channels and restore fast inactivation; settings: qualitative summary; methods similar to Examples 1-4
# Excerpt: The results of these experiments are summarized qualitatively below.
# [5] = target: sodium channel in CNaIIA cells (Rattus norvegicus, UniProt P04775); assay: Blocking of the sodium channel in CNaIIA cells by IFM-amide during repetitive stimulation; settings: for dependence of inhibition of sodium channels / sodium channel blocking: repetitive stimulation; for sodium channel blocking: FIGS. 7 and 8
# Sequence of sodium channel in CNaIIA cells (P04775 whole entry): as above
# Excerpt: It was reasoned that a tripeptide IFM-amide could be an effective inactivation gate peptide since it contains both the critical IFM residues and the charge of the unblocked α-amino group in the isoleucine residue. […] During repetitive stimulation, increased inhibition is observed with each succeeding pulse (pulse #) until a steady state is reached (FIG. 7). The degree of inhibition at steady state is dependent on the frequency of the stimulation pulses (% Ipulse #1; FIG. 7) and on the voltage of the stimulating pulses (FIG. 8). […] This implies that IFM amide has greater intrinsic affinity for the receptor site that blocks the sodium channel.
molecule,measurement,setting,value
"Ac-KIQMK-NH2 [KIQMK, acetyl-KIQMK-amide, reference compound]",block of rapidly cycling type IIA sodium channels over the entire voltage range,[1]; FIG. 3,inactive; also recorded: did not block
same,inactivation of mutant (F1489Q) sodium channels,[2],without effect; also recorded: did not
same,macroscopic sodium current elicited by depolarizing test pulse to 0 mV,[3],no significant effect
same,tail currents elicited by repolarization pulse,[3],no significant effect; also recorded: no significant gating currents
same,initial rate of sodium channel inactivation in presence of α-scorpion toxin,[4],no effect
Ac-DIFMT-NH2 [acetyl-DIFMT-amide],Inhibition of Na+ channels,Na+ channels,ineffective
"CC[C@H](C)[C@H](NC(=O)[C@H](CCCCN)NC(C)=O)C(=O)N[C@@H](Cc1ccccc1)C(=O)N[C@@H](CCSC)C(=O)N[C@@H](CCCCN)C(N)=O [KIFMK, acetyl-KIFMK-amide]",time to appearance of tail currents after peptide diffusion into the cell,[1]; 1 mM peptide in backfilled electrode,≤ 10 min
same,reduction (inhibition) of sodium currents in response to frequent depolarizing pulses,"[1]; 1 mM peptide in electrode, 10 Hz pulses, after 15 min perfusion/cycling",substantial level of inhibition; also recorded: substantially reduced
same,channel block by 10 Hz pulses given at 100 mV,"[1]; 1 mM peptide, FIG. 3",completely blocked
same,reduction in sodium current when cell membranes not depolarized frequently,"[1]; 1 mM peptide, closed channels",Little reduction
same,blockage of currents generated in response to 10 Hz pulses at positive voltages,"[1]; 1 mM peptide, greater than 0 mV",substantial
same,block of rapidly cycling type IIA sodium channels over the entire voltage range,[1]; FIG. 3,inhibited
same,inhibition of sodium currents within 4 minutes of cycling,"[1]; FIG. 2A, relative to control recording without peptide",insignificant level of inhibition
same,character of the inhibitory effect on the sodium channel,[1]; combined results of Example 1,strong and voltage- and frequency-dependent
same,time to steady-state level of inhibition,[2]; 1 mM peptide,less than 2 ms
same,course and extent of induced inactivation,"[2]; 1 mM, compared with wild-type channel function",rapid but incomplete
same,inactivation of mutant (F1489Q) sodium channels,[2],restore inactivation; also recorded: successfully inactivated
same,macroscopic sodium current elicited by depolarizing test pulse to 0 mV,[3],decayed with a time course faster than that of controls
same,tail currents elicited by repolarization pulse,[3],rose to a peak and then decayed much more slowly than in controls; also recorded: significant tail currents
same,initial rate of sodium channel inactivation in presence of α-scorpion toxin,[4],significantly accelerated; also recorded: partially restore inactivation activity
CC[C@H](C)[C@H](N)C(=O)N[C@@H](Cc1ccccc1)C(=O)N[C@@H](CCSC)C(N)=O [IFM-amide] (H-Ile-Phe-Met-NH2),"membrane potentials at which block is effective, compared with KIFMK",[5]; compare FIGS. 3 and 8,effective sodium channel blocker at much more negative membrane potentials than KIFMK
same,blocking activity compared with IFM free acid or acetyl IFM free acid,[5]; experiments like those in Example 6,increased blocking activity
same,dependence of inhibition of sodium channels,[5],voltage-sensitive blocking
same,sodium channel blocking,[5],blocking of the sodium channel
same,sodium channel blocking,[5]; listed as IFM amide,very effective sodium channel blocker
same,dependence of inhibition of sodium channels,[5]; listed as IFM amide,voltage- and frequency-dependent
